pKi: −log10 of the molar value. Values joined by “and” are separate entries in the source; they are usually repeats but may differ in a detail not shown here. Equal entries are not always repeated.
Assays:
SULT1A1 = system: SULT1A1; parameters: method as in Ma et al. 2003; conditions: ref Ma et al. 2003; cited from earlier work
SULT1E1 [1] = system: SULT1E1; parameters: method as in Ma et al. 2003; conditions: ref Ma et al. 2003; cited from earlier work
SULT1A3 [2] = system: SULT1A3; parameters: method as in Ma et al. 2003; conditions: ref Ma et al. 2003; cited from earlier work
SULT1E1 [3] = molecular target: T1, SULT1E1 (Homo sapiens, UniProt P49888); experiment: Kinetics of 3-OH-BaP sulfonation by partially purified cDNA-expressed SULT1E1; assay type: biochemical
T1 construct: made in house; host or cells: Escherichia coli
T1 sequence (P49888 1-294): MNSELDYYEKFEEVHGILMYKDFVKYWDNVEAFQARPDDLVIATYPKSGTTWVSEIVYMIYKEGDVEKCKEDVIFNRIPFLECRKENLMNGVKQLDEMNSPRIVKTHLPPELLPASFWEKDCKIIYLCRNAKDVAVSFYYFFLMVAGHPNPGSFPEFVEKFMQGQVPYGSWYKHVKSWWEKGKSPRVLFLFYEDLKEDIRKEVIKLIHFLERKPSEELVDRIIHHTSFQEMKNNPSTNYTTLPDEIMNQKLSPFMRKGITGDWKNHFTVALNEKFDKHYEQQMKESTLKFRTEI
Source text: (§1) The expression of human SULT1A1*1, SULT1A3, SULT1B1, and SULT1E1 in Escherichia coli has been described previously ([Dajani et al. 1998]; [Wang et al. 1998]). We grew E. coli cells containing the respective sulfotransferase genes as described previously ([Falany et al. 1990], [1994]), and prepared 100,000g supernatant fractions for use in inhibition studies and for partial purification of the SULT enzymes. We purchased expressed SULT1A1*2 cytosolic extract from PanVera (Madison, WI) and used it as supplied.
(§2) The 100,000g supernatant fractions of SULT1A1*1, SULT1A3, SULT1B1, and SULT1E1 were partially purified by chromatographic methods ([Falany et al. 1990], [1994]). […] We analyzed active fractions by SDS-PAGE ([Laemmli 1970]) to assess the purity of each SULT enzyme. We stained the gels with Coomassie R-250 reagent and determined the percentage of protein present as each respective SULT enzyme by scanning densitometry.
(§3) We determined SULT activity with 3-OH-BaP as substrate by a fluorimetric assay of BaP-3-SO4 product formation, as described previously ([Wang et al. 2004]). […]
(§4) We determined the kinetic parameters for 3-OH-BaP sulfonation by partially purified preparations of the cDNA-expressed SULT isozymes under incubation conditions similar to those used for liver cytosol. […]

SULT1B1 = molecular target: T2, SULT1B1 (Homo sapiens, UniProt O43704); experiment: Kinetics of 3-OH-BaP sulfonation by partially purified cDNA-expressed SULT1B1; assay type: biochemical; conditions: concentration range up to 5 μM
T2 construct: made in house; host or cells: Escherichia coli
T2 sequence (O43704 whole entry): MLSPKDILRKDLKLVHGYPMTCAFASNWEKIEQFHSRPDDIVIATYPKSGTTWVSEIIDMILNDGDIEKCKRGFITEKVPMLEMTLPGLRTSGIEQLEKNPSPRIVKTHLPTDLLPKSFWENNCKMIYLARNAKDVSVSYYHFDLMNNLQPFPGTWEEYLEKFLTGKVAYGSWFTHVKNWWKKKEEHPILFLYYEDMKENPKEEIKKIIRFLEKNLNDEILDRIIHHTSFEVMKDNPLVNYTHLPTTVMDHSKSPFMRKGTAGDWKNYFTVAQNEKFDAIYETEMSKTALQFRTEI
Source text: as §1, §2, §3, §4

SULT1A1*2 = molecular target: T3, SULT1A1*2 (Homo sapiens, UniProt P50225, R213H); experiment: Kinetics of 3-OH-BaP sulfonation by expressed SULT1A1*2; assay type: biochemical; conditions: expressed SULT1A1*2
T3 construct: purchased PanVera (Madison, WI); host or cells: Sf-9
T3 sequence (P50225 whole entry R213H): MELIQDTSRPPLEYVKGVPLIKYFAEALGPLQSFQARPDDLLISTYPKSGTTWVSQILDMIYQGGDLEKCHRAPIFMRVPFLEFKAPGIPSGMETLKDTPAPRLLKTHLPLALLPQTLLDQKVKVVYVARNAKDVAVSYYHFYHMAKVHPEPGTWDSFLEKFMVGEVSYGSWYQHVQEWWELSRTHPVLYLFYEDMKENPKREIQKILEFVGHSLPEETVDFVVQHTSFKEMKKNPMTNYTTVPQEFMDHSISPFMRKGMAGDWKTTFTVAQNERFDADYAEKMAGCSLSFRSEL
Source text: as §1
(§5) We determined SULT activity with 3-OH-BaP as substrate by a fluorimetric assay of BaP-3-SO4 product formation, as described previously ([Wang et al. 2004]). […] Duplicate tubes were prepared for each incubation condition. We examined the kinetics of sulfonation in three liver cytosol fractions by systematically varying the concentration of 3-OH-BaP or PAPS. When the variable substrate was 3-OH-BaP, we used 12 concentrations in the range from 0.035 to 2.00 μM, and the concentration of PAPS was kept constant at 10 μM. When we varied PAPS, we used 7 concentrations from 0.157 to 10.0 μM and kept the concentration of 3-OH-BaP constant at 0.100 μM.
We determined the kinetic parameters for 3-OH-BaP sulfonation by partially purified preparations of the cDNA-expressed SULT isozymes under incubation conditions similar to those used for liver cytosol. For SULT1A1*1 and -1A1*2, we used seven substrate concentrations in the range from 5 to 100 nM; for SULT1E1 we used […] 3-OH-BaP concentrations from 15.6 to 1,000 nM; and for SULT1A3 and 1B1 we used seven concentrations of 3-OH-BaP from 0.25 to 5.0 μM.
(§6) We calculated the enzyme kinetic parameters from studies with variable concentrations of 3-OH-BaP using nonlinear regression analysis and GraphPad 4.0 software (GraphPad Software, San Diego, CA). We selected the built-in Michaelis-Menten equation for most analyses. Where we found evidence of 3-OH-BaP substrate inhibition, we fit the data into an equation derived from a two-substrate model ([Zhang et al. 1998]): […]
(§7) This equation denoted the constant for binding of the first substrate (S) molecule as Km and the second substrate molecule as Ki. V1 is the maximum rate for the noninhibitory substrate concentration range, and V2 is the minimum rate in the inhibitory substrate concentration range

[4] = molecular target: HL cytosol sulfotransferase (Homo sapiens, UniProt P50225); experiment: Kinetics of 3-OH-BaP sulfonation by human liver cytosol (fluorimetric assay of BaP-3-SO4 formation); assay type: biochemical
HL cytosol sulfotransferase, sequence (P50225 whole entry): as the sequence (P50225 whole entry R213H) above, with H213R counted along it
Experimental: F.P. Guengerich (Vanderbilt University) kindly donated the samples of human liver, which were procured from organ donors ([Guengerich 1995]). We prepared liver cytosolic fractions from four livers by standard methods and stored aliquots at −80°C until use ([Wang et al. 2004]). We used three or four of these cytosol fractions in each experiment.
as §5, §6, §7

SULT1A3 [5] = molecular target: T4, SULT1A3 (Homo sapiens, UniProt P0DMM9); experiment: Kinetics of 3-OH-BaP sulfonation by partially purified cDNA-expressed SULT1A3; assay type: biochemical; conditions: concentration range up to 5 μM
T4 construct: made in house; host or cells: Escherichia coli
T4 sequence (P0DMM9 whole entry): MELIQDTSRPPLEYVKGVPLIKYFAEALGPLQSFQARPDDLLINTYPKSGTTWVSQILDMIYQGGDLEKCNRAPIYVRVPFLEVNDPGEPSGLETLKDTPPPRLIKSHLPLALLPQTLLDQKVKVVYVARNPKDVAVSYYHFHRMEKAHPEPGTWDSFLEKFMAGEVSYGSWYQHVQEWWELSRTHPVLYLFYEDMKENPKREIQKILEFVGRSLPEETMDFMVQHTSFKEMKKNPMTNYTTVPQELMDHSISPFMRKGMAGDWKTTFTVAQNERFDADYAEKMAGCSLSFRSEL
Source text: as §1, §2, §3, §4

[6] = molecular target: HL cytosol 3-OH-BaP sulfotransferase (Homo sapiens, UniProt P50225); experiment: Kinetics of 3-OH-BaP sulfotransferase inhibition by 4′-OH-CB112 in HL cytosol; assay type: biochemical; conditions: 0 μM B5, mean ± SD n = 3
HL cytosol 3-OH-BaP sulfotransferase, sequence (P50225 whole entry): as the sequence (P50225 whole entry R213H) above, with H213R counted along it
Experimental: To study the type of inhibition produced by OH-PCBs, we used 4′-OH-CB112 (B5) as a model inhibitor. We prepared four sets of assay tubes containing HL cytosol and varying amounts of 3-OH-BaP from 35 to 150 nM: one set (control) contained no 4′-OH-CB112; the other sets contained 0.25 μM, 0.5 μM, or 1.0 μM 4′-OH-CB112.
We calculated the effects of OH-PCBs on 3-OH-BaP SULT activity as percentage inhibition compared with the controls without an inhibitor. We obtained IC50 values by fitting log OH-PCB concentration and percent control activity to a sigmoidal curve. We examined the relationships between IC50 and physicochemical properties of the OH-PCBs by linear correlation analysis. We calculated the inhibitory constant (Ki) from the kinetic studies with 4′-OH-CB112 by means of Dixon plots and plots of Km/Vmax against inhibitor concentration ([Cornish-Bowden 1995]).

SULT1A1*1 = molecular target: T5, SULT1A1*1 (Homo sapiens, UniProt P50225); experiment: Kinetics of 3-OH-BaP sulfonation by partially purified cDNA-expressed SULT1A1*1; assay type: biochemical
T5 construct: made in house; host or cells: Escherichia coli
Source text: as §1, §2, §3, §4

[7] = HL 2 cytosol (heterozygous SULT1A1*1/*2)
[8] = HL 3 cytosol (homozygous SULT1A1*2)

SMILES | Km (SULT1A1) | Km (SULT1E1 [1]) | Km (SULT1A3 [2]) | 3-OH-BaP concentration showing substrate inhibition (SULT1E1 [3]) | substrate inhibition (SULT1B1) | V1 (SULT1A1*2) | V2 (SULT1A1*2) | pKi (SULT1A1*2; substrate inhibition) | V1 ([4]; HL 1 cytosol (homozygous SULT1A1*1), maximum rate, noninhibitory substrate range) | V2 ([4]; HL 1 cytosol (homozygous SULT1A1*1), minimum rate, inhibitory substrate range) | V1 [4, 7] | V2 [4, 7] | V1 [4, 8] | V2 [4, 8] | 3-OH-BaP concentration resulting in a decrease in activity (substrate inhibition) ([4]; HL cytosol) | V1 ([4]; HL cytosol, mean ± SD of three livers) | substrate inhibition (SULT1A3 [5]) | Vmax (3-OH-BaP sulfotransferase activity) [6] | 3-OH-BaP concentration showing substrate inhibition (SULT1A1*1)
Oc1ccc2ccc3cccc4ccc1c2c34 [1-hydroxypyrene] | 0.008 µM | 0.021 µM | 0.8 µM | – | – | – | – | – | – | – | – | – | – | – | – | – | – | – | –
Oc1ccc2ccc3c4ccccc4cc4ccc1c2c43 [Compound 3-OH-BaP, 3-hydroxybenzo[a]pyrene] | – | – | – | > 0.15 µM | did not exhibit substrate inhibition | 4,400 pmol/min/mg protein | 290 pmol/min/mg protein | 6.80 | 121 pmol/min/mg protein | 2 pmol/min/mg protein | 93.0 pmol/min/mg protein | 38.50 pmol/min/mg protein | 94 pmol/min/mg protein and 94.4 pmol/min/mg protein | 31.0 pmol/min/mg protein | > 0.15 µM | 102 ± 15.8 pmol/min/mg protein | did not exhibit substrate inhibition | 69.1 ± 8.0 B pmol/min/mg protein | > 0.15 µM

Source: article PMC1257591, “In Vitro Inhibition of Human Hepatic and cDNA-Expressed Sulfotransferase Activity with 3-Hydroxybenzo[a]pyrene by Polychlorobiphenylols” (Environmental Health Perspectives, 2005)
